Reference: patent US20130230458A1, “Cell Permeable Inhibitors of Anaphase Promoting Complex” (PRESIDENT AND FELLOWS OF HARVARD COLLEGE, priority 2010, published 2013)
Where a SMILES comes first, the peptide text is derived from it. The star is where a group is joined. Cbz = O=C(OCc1ccccc1)*

Assays:
[1] = test system: HeLa H2B-GFP cells; assay: Live cell imaging of mitotic duration and cell fate; format: cell-based, human
Procedure: Detailed siRNA transfection and drug treatment schemes are described in supplemental experimental procedures. HeLa H2B-GFP cells were plated in DMEM with 10% FBS at 20% confluence. […] Live cell imaging was performed at 12 minute intervals on a Nikon TE2000E PFS inverted microscope fitted with an incubation chamber maintained at 37° C. and supplied with 5% CO2. Cell division was tracked by manual inspection of movies, and mitotic duration was measured as the time between the first frame of chromosome condensation and the frame of chromosome segregation (anaphase), decondensation (mitotic exit without anaphase) or cell death (chromosomes shrinking to a small bright dot).
The imaging plate was mounted onto a motorized stage (Prior ProScan II) on a Nikon TE2000E PFS inverted microscope fitted with an incubation chamber maintained at 37° C. and supplied with 5% CO2. […] TIFF files of each image were exported from Elements and used to build stacks and Quicktime movies with Metamorph imaging software (Molecular Devices). For manual analysis, mitotic duration is counted as the time between the first frame of chromosome condensation and the frame of chromosome segregation (anaphase) or decondensation (mitotic exit in the presence of nocodazole) or cell death (chromosomes shrinking to a small bright dot).
HeLa H2B-GFP cells were plated in a 24-well plate in DMEM 10% FBS at 20% confluence one day prior to experiment and synchronized by double thymidine block as described above. […] Live cell imaging was set up as described above.
HeLa H2B-GFP cells were plated in a 24-well plate in DMEM+10% FBS at 20% confluence one day prior to the experiment and synchronized by double thymidine block as described above. The cells were released from the first thymidine block into 200 μl OptiMem without FBS. Transfection was performed immediately after the first thymidine release. […] The two mixtures were left at room temperature for 5 min before being mixed together and incubated for additional 20 min and then added to the cells to a final volume of 250 μl. 4 h after transfection, 250 μl of DMEM+20% FBS were added to cells.
HeLa H2B-GFP cells were plated in glass-bottom 24-well plates at 20% confluence one day prior to the experiment and synchronized by double thymidine block as described above. […] Cells were treated with 100 nM Hesperadin or DMSO 8 h after release from the second thymidine block and live cell imaging was set up as described above.
HeLa H2B-GFP cells were plated in a 24-well plate in DMEM+10% FBS at 20% confluence one day prior to experiment and synchronized by double thymidine block as synchronized above. […] Live cell imaging was set up as described above.
HeLa H2B-GFP cells were plated in a 24-well plate in DMEM+10% FBS at 20% confluence one day prior to experiment and synchronized by double thymidine block as described above. […] Untreated cells were used as the control. Live cell imaging was set up as described above. […] Alternatively, at 10 h after release from the second block, 10 μM MG132 with or without 25 μg/ml cycloheximide was added to the cells. […] Live cell imaging was set up as described above.
HeLa H2B-GFP cells were plated in a 24-well plate in DMEM+10% FBS at 20% confluence one day prior to experiment and synchronized by double thymidine block as described above. Mad2 siRNA transfection was performed as described above. At 10 h after release from the second block, 10 μM MG132 with or without 25 μg/ml cycloheximide was added to the cells. Live cell imaging was set up as described above. Manual analysis was focused only on cells that entered mitosis after MG132 addition.

[2] = test system: HeLa H2B-GFP cells; format: cell-based, human; conditions: double thymidine synchronized, drugs 10 hrs after release; proTAME 3 μM; MG132 concentration not given
Procedure: To determine whether proTAME treatment can enhance mitotic arrest and cell death induced by taxol or a proteasome inhibitor (MG132), HeLa H2B-GFP cells were co-treated with low doses of the microtubule poison Taxol or the proteasome inhibitor MG132 in combination with a low dose of proTAME.
Unsychronized HeLa H2B-GFP cells were treated with DMSO (control), taxol 10 nM or proTAME 3 μM or a combination of Taxol 10 nM and proTAME 3 μM (FIG. 26). The cells were imaged by FITC fluorescence microscopy to monitor the cell cycle and mitotic events.
To analyze interactions between proTAME and a proteasome inhibitor (FIG. 27), HeLa H2B-GFP cells were synchronized by double thymidine block (2 mM thymidine block for 18 hrs, release in medium for 8 hrs 2 mM thymidine block for 18 hrs), and treated with the drugs 10 hrs after release from the block as the cells just entered mitosis.

[3] = test system: HeLa H2B-GFP cells; assay: Chromosome congression analysis; format: cell-based, human
Procedure: HeLa H2B-GFP cells were plated in 35 mm glass-bottom dishes (MatTek) in DMEM+10% FBS at 20% confluence one day prior to the experiment and synchronized by double thymidine block as described above. Drugs were added as follows to a final volume of 3 ml from 2× concentrated preparation in culture medium. DMSO (0.06%), proTAME (3 and 12 μM) or 10 nM Nocodazole were added 8 h after release from the second block, while MG132 (10 μM) was added at 10 h. H2B-GFP was imaged for 4 hrs every 3 min at 40× magnification as described above.

[4] = test system: HeLa cells; assay: Live imaging of HeLa cells expressing Histone 2B-GFP (Examples 1 and 2); format: cell-based, human; conditions: 3 μM MG132
Text: Cumulative frequency curves of mitotic duration were plotted.
The same experiment in 1B was done with proAAME.
Synchronized HeLa cells were transfected with Mad2/control siRNA followed by drug treatments. Cumulative frequency curves of mitotic duration were plotted.
Asynchronous HeLa cells were transfected with Mad2 or control siRNA.
For comparison, the curves obtained in H2B-GFP fluorescent imaging experiment shown in FIG. 1B were plotted on the same graph.

[5] = test system: hTERT-RPE1 H2B-GFP cells; assay: Live cell imaging of mitotic duration in hTERT-RPE1 cells; format: cell-based
Procedure: FIG. 18A is a graph and table showing that proTAME induces a mitotic delay in hTERT-RPE1 H2B-GFP cells. Asynchronous hTERT-RPE1 H2B-GFP cells were treated with 0.06% DMSO, 6 μM proTAME or 12 μM proAAME. Cells were imaged at 12 min interval. Cumulative frequency curves of mitotic duration and cell fate distribution are shown.
The imaging plate was mounted onto a motorized stage (Prior ProScan II) on a Nikon TE2000E PFS inverted microscope fitted with an incubation chamber maintained at 37° C. and supplied with 5% CO2. A 20× Plan Apo 0.75 NA or 40× Plan Fluor 0.75 NA objective lens was used as indicated and images were collected with 2×2 binning DIC or GFP fluorescent images were taken every 12 min (unless otherwise specified) for 36 h with a Hamamatsu ORCA cooled CCD camera and Nikon Elements Software. TIFF files of each image were exported from Elements and used to build stacks and Quicktime movies with Metamorph imaging software (Molecular Devices). For manual analysis, mitotic duration is counted as the time between the first frame of chromosome condensation and the frame of chromosome segregation (anaphase) or decondensation (mitotic exit in the presence of nocodazole) or cell death (chromosomes shrinking to a small bright dot).

[6] = test system: cyclin B1-GFP; assay: Exogenous cyclin-GFP expression, live-cell imaging and quantitation (cyclin B1-GFP); format: cell-based, human; conditions: HeLa H2B-RFP; 20 μM proTAME or proAAME, 150 nM nocodazole
Procedure: (§1) HeLa H2B-RFP cells were transduced with cyclin B1-GFP or cyclin A2-GFP adenovirus for 40 h. Phenol Red-Free DMEM (Mediatech) supplemented with 10% FBS and 1:100 Penicillin-Streptomycin-Glutamine (Mediatech) was used as imaging medium. 20 μM proTAME, […] or 150 nM nocodazole was added 45 min prior to the start of imaging. Live cell imaging was set up as described above except that the cells were plated in an 8-well chambered coverglasses (NUNC Lab-tek 155411). Four positions per treatment group were imaged with DIC transmitted light, red fluorescence, and green fluorescence (Semrock GFP/HcRed “Pinkel” filter set) at 12 min intervals for 24 h. Stacks of red and green fluorescence were merged, saved as AVI video files and analyzed using ImageJ. For quantitation, the first GFP-positive cells that undergo mitosis in three separate movies were chosen, giving at least 30 cells quantitated for each treatment group. Mean intensity values for the green channel were collected for a cytoplasmic region of a cell upon mitotic entry, mitotic exit, or after 1 h of mitotic arrest. At the same time points, background mean green intensity was determined and individually subtracted from the cytoplasmic mean intensity. This background corrected mean intensity value was then used to determine the percentage of the original GFP signal remaining at the completion of division (for the control cells) or after 1 h of mitotic arrest (for the nocodazole and proTAME treated cells). The average values for all quantitated cells were plotted with the error bars representing standard error of the mean.

[7] = test system: cyclin A2-GFP; assay: Exogenous cyclin-GFP expression, live-cell imaging and quantitation (cyclin A2-GFP); format: cell-based, human; conditions: HeLa H2B-RFP; 20 μM proTAME or proAAME, 150 nM nocodazole
Procedure: as §1

[8] = target: T1, APC (Homo sapiens, UniProt P30260); assay: Cdc20/Cdh1 binding assay in HeLa cells; format: cell-based; conditions: 12 μM, HeLa released from nocodazole block
T1 construct: endogenous in cells; host or cells: HeLa cells (synchronised; in some experiments also Mad2/BubR1 siRNA and cyclin B1Δ107 adenovirus)
Procedure: HeLa cells in DMEM 10% FBS were plated in T25 flasks at 20% confluence one day prior to the experiment. They were then synchronized by a double thymidine block (18 h for the first block, 8 h release and another 18 h for the second block, thymidine concentration: 2 mM). For analysis of Cdh1 binding, cells were released into […] from the second thymidine block for 13 h and then washed into fresh medium. Six h later, cells were treated with 12 μM proTAME or […] or 0.06% DMSO for 2 h and then collected by trypin digrestion. For analysis of Cdc20 binding, cells were transfected with indicated siRNAs during the first release from thymidine block after two washes with DPBS (CellGro 21-030-CV) and addition of 6.3 ml OptiMEM. A volume (79 μl) of 20 μl Control siRNA#3 or a 1:1 mix of 20 μl MAD2 siRNA and BubR1 siRNA (Dharmacon D-004101-01, 5′-[…]-3′ (SEQ ID NO: 11)) was mixed in 1381 μl OptiMEM in a tube, 23.7 μl OligoFectamine were mixed with 94.1 μl OptiMEM in a second tube. After 5 min incubation at RT, the tubes contents were mixed and siRNA-reagent complexes were allowed to form for 20 min at RT. The transfection mixes were added to cells in OptiMEM and FBS was added to 10% after 5 h transfection. Cyclin B1-4107 expressing adenovirus (1:100) was added at the start of the second thymidine block and kept in the medium for all subsequent steps. […]

[9] = proTAME 12 μM, MG132 10 μM, Nocodazole 10 nM
[10] = asynchronous hTERT-RPE1 H2B-GFP, proAAME 12 μM, proTAME 6 μM
[11] = 12 μM, double thymidine synchronized, added 8 h after release

T1 sequence (P30260 whole entry): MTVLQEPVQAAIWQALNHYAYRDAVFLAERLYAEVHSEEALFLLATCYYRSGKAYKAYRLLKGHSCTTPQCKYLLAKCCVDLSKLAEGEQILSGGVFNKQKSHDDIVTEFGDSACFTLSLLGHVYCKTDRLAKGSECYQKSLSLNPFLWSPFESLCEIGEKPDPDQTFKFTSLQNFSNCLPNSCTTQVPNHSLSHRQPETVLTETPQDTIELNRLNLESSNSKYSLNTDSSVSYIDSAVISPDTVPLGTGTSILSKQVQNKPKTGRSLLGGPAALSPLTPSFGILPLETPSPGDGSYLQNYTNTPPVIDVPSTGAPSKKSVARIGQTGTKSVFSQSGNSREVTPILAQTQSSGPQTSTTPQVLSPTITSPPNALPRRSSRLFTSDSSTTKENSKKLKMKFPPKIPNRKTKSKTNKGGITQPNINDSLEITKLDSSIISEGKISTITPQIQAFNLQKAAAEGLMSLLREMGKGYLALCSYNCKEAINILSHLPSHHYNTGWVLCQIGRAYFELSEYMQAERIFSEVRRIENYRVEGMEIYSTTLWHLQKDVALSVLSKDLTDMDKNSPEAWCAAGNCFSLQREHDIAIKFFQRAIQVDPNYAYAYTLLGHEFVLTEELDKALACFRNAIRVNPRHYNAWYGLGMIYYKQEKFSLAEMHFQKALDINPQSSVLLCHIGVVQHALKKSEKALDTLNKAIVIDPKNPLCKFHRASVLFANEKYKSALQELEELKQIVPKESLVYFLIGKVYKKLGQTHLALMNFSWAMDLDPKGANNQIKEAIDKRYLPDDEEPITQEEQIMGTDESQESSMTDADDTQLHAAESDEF

Row | SMILES | Cells that exited mitosis during the 30 h experiment ([1]; 3 μM MG132, control cells) | Time a normal-appearing metaphase plate is maintained ([1]; MG132 alone) | Median mitotic delay / arrest [2] | Delay in chromosome congression (in words) ([3]; 3 μM proTAME or 10 μM MG132) | Average chromosome congression time (prophase to full metaphase congression) [3, 9] | Median chromosome congression time (prophase to full metaphase congression) [3, 9] | Mad2-dependence of mitotic arrest [4] | Average mitotic duration [5, 10] | Median mitotic duration [5, 10] | Median mitotic duration ([5]; proAAME-treated hTERT-RPE1 cells) | Mitotic phenotype ([1]; 12 μM) | Average mitotic duration [1, 11] | Median mitotic duration [1, 11] | Average cyclin B1-GFP intensity remaining at 60 min vs onset of mitosis [6] | Median cyclin B1-GFP intensity remaining at 60 min vs onset of mitosis [6] | Average cyclin A2-GFP intensity remaining at 60 min vs onset of mitosis [7] | Median cyclin A2-GFP intensity remaining at 60 min vs onset of mitosis [7] | Cdh1 association with the APC in G1 cells [8]
1 | CC(C)C[C@@H](C=O)NC(=O)[C@H](CC(C)C)NC(=O)[C@H](CC(C)C)NC(=O)OCc1ccccc1 [MG132, reference compound] (Cbz-Leu-Leu-Leu-aldehyde) | 10% | over 5 h | 276 min | no delay in chromosome congression | 21.6 min | 21 min | partially dependent on Mad2 | – | – | – | – | – | – | – | – | – | – | –
2 | COC(=O)[C@H](CC(C)N=C(NC(=O)OCOC(=O)Cc1ccccc1)NC(=O)OCOC(=O)Cc1ccccc1)NC(C)=O (stereo partly drawn) [proAAME, methyl(S)-2-(acetyl)amino-4-[[bis[[[[(phenylacetyl)oxy]methoxy]carbonyl]amino]methylene]amino]pentanoate] | – | – | – | – | – | – | – | 32.1 min | 36 min | 24 min | no effect | 100.5 min | 84 min | 0.15 fraction remaining | 0.15 fraction remaining | 0.08 fraction remaining | 0.06 fraction remaining | did not
